Assay results reported in PubChem BioAssay (NCI).
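96-well plates; 48 h exposure; 5 concentrations. Endpoints by linear interpolation between flanking doses. Not reached: highest tested concentration assigned. The concentration for full growth arrest is given as TGI.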

Assays:
Assay in all cases: DTP human tumour cell line panel, 48 h
COLO 205 colon = tested on: COLO 205 colon
OVCAR-4 ovarian = tested on: OVCAR-4 ovarian
IGROV1 ovarian = tested on: IGROV1 ovarian
RPMI-8226 leukemia = tested on: RPMI-8226 leukemia
HCC-2998 colon = tested on: HCC-2998 colon
U251 CNS = tested on: U251 CNS
EKVX NSCLC = tested on: EKVX NSCLC
SR leukemia = tested on: SR leukemia
NCI-H522 lung = tested on: NCI-H522 lung
CAKI-1 renal = tested on: CAKI-1 renal
M14 melanoma = tested on: M14 melanoma
MOLT-4 leukemia = tested on: MOLT-4 leukemia
HOP-62 NSCLC = tested on: HOP-62 NSCLC
LOX IMVI melanoma = tested on: LOX IMVI melanoma
HCT-15 colon = tested on: HCT-15 colon
T-47D breast = tested on: T-47D breast

Measured: TGI

CN(C)CCCNC(=O)c1cc(NC(=O)c2cc(NC(=O)[C@@H]3C[C@H]3C(=O)Nc3cc(C(=O)Nc4cc(C(=O)NCCCN(C)C)n(C)c4)n(C)c3)cn2C)cn1C
not listed: HCT-15 colon | T-47D breast
> 100 µM: all other assays above

C[N+](C)([O-])Cc1cc(-c2ccccc2)ccc1O
not listed: COLO 205 colon | RPMI-8226 leukemia
> 100 µM: all other assays above

O=[N+]([O-])c1sc2ccc(Cl)cc2c1Nc1ccc(Cl)cc1
not listed: SR leukemia | CAKI-1 renal
> 100 µM: all other assays above

O=C(O)c1nccnc1C(=O)O
not listed: M14 melanoma | HOP-62 NSCLC | T-47D breast
> 100 µM: all other assays above

[O-][n+]1c(-c2ccccc2)c2nc3ccccc3nc2c2ccccc21
not listed: SR leukemia | T-47D breast
> 100 µM: all other assays above

O=C(/C=C/c1ccc(O)c(O)c1)NCCc1ccc(-c2ccccc2)cc1
not listed: IGROV1 ovarian | U251 CNS | SR leukemia | LOX IMVI melanoma
> 100 µM: all other assays above

OC(c1ccccc1)C(F)(F)c1nc2ccccc2o1 (configuration not stated)
not listed: NCI-H522 lung
> 100 µM: all other assays above

O=S(=O)(OI(O)CC(F)(F)F)C(F)(F)F
> 100 µM: all assays above
